Patent publication US6525017B1, “Using glutathiane to protect neurons from injury” (The Children's Medical Center Corporation, priority 1989, dated 2003)

Legend:
NMDA receptors = conditions: 0.5-10 mM
retinal ganglion cells = test: Survival of retinal ganglion cells exposed to glutamate (NMDA neurotoxicity); type: cell-based, rat; conditions: for NMDA receptor-mediated neurotoxicity / neuronal cell injury: oxidized DTT produced from reduced DTT with DTNB
Protocol: To investigate the influence of redox modulation on NMDA neurotoxicity, survival of an identified central neuron, the retinal ganglion cell, was monitored for 12-24 hr after a brief (5-10 min.) exposure to DTT. To determine the degree of killing specifically related to activation of the NMDA receptor, APV at 200 μM was added to sibling cultures. APV-preventable, glutamate-induced death was increased 70±9% with DTT treatment.
Retinal ganglion cell neurons were labeled in situ, dissociated from the retina, and cultured as follows. Retinal ganglion cells from 7- to 12-day-old Long-Evans rats were labeled and enzymatically dissociated as described by Leifer et al., Science 224: 303, 1984. Following rinse of the dissociated retinal cells with a physiological saline based on Hanks' salts (composition in mM: NaCl, 137; NaHCO3, 1; Na2HPO4, 0.34; KCl, 5,36; KH2PO4, 0.44; CaCl2, 1.25, MgSO4, 0.5; MgCl2, 0.5; N-2-hydroxyethyl-piperazine-N′-2-ethanesulfonic acid (HEPES), 5; dextrose, 22.2; Phenol Red, 0.001% v/v; adjusted to pH 7.2 with 0.3 M NaOH), the cells were mechanically dispersed and aliquoted to treatment vials. These vials contained control saline solution, or saline solution with either 0.5-2 mM DTT, or 0.5 mM DTT in the presence of 1 mM DTNB. Treatment groups with DTNB were readjusted to pH 7.2 with 0.3 M NaOH. Cells were agitated gently over a 5-10 min period. After treatment, 100 μl volumes of the cell suspension were plated onto glass coverslips coated with poly-L-lysine in 35×10 mm tissue-culture dishes containing 2 ml of culture medium. The cell culture medium was based on Eagle's minimum essential medium (MEM), modified so that it was nominally free of magnesium and contained 10 mM CaCl2 to enhance NMDA receptor-mediated neuro-toxicity. The medium was also supplemented with methylcellulose 0.7% w/v, gentamicin 1 μg/ml, dextrose 16 mM, and rat serum 5% v/v. Glutamate levels in the culture medium were monitored by HPLC analysis. Concentrations of glutamate added to the medium of each experiment to induce cell killing averaged 10 μM (day to day variability in neuronal cell death was most probably due to slight variations in the amount of endogenous glutamate or a glutamate-like substance in these cultures). The 100 μl aliquots of cell suspension diluted into the 2 ml of MEM produced a final concentration of 50 μM Mg^2+, as well as levels of DTT and DTNB at 5% of their initial treatment concentrations. The cell cultures were incubated for 12-24 hours at 37° C. in an atmosphere of 5% CO2/95% humidified air. Neuronal survival was then scored by counting retinal ganglion cells displaying uptake and cleavage of fluorescein diacetate to fluorescein, as described by Hahn et al. Proc. Nat. Acad. Sci. USA 85:6556, 1988.
Experiments were conducted in triplicate and repeated on eleven separate days. In order to compare results obtained on different days, data were normalized such that the total number of surviving neurons in a given experiment divided by the number of treatment categories (i.e., 4) equalled 100.
Retinal cells were cultured as described in Example 1. In these experiments transient exposure to the reduced form of DTT (500 μM) occurred in the presence of DTNB (1 mM).

NMDA receptor = test: NMDA-induced responses recorded in intact chick retina (eyecup, optic nerve DC potential); type: cell-based; conditions: APV 100 μM
Protocol: Eyecups were obtained from 2-to 5-day-old chicks and continuously superfused at 20-25° C. at a rate of 8 ml/min with Tyrodes solution (130 mM NaCl, 3 mM KCl, 17 mM dextrose, 20 mM NaHCO3, 0.01% w/v phenol red; bubbled with a gas mixture of 95% O2 and 5% CO2) containing 5 mM MgCl2 to reduce synaptic activity. […] Traces were triggered by the opening of two solenoid valves that shunted approximately 200 μl of agonist (1, 1-dimethyl-4-phenyl-piperazinium iodide, DMPP or NMDA) into the perfusion line, Agonists reached the preparation approximately 7s later. […] Some experiments were performed in the presence of 10 μg/ml catalase and 1 μg/ml superoxide dismutase. Antagonists, reducing agents, or oxidizing agents were introduced directly via the perfusate.

For `N[C@@H](CCC(=O)N[C@@H](CS)C(=O)NCC(=O)O)C(=O)O` [reduced glutathione, glutathione], the “protection against toxicity mediated at NMDA receptors” value (NMDA receptors) was “can protect”.

`O[C@H]1CSSC[C@@H]1O` [oxidized DTT, oxidized dithiotheritol] was tested, and the “NMDA receptor-mediated neurotoxicity / neuronal cell injury” value (retinal ganglion cells) was “does not effect neuronal cell injury” and the “NMDA receptor-mediated neurotoxicity / neuronal cell injury” value (retinal ganglion cells; listed as oxidized dithiotheritol (DTT)) was “does not significantly affect”.

`NC(CCCP(=O)(O)O)C(=O)O` (stereo not shown) [APV, 2-amino-5-phosphonovalerate] was tested, and the “NMDA-induced responses in native and reduced states” value (NMDA receptor) was “blocked NMDA-induced responses”, the “vulnerability of neurons despite DTT treatment” value (retinal ganglion cells; 200 μM APV after DTT treatment) was “could be blocked” and the “death of retinal ganglion cells exposed to glutamate in the culture medium” value (retinal ganglion cells; APV 200 μM, DTT transient exposure, 12-24 hr) was “prevented the death”. The “neuronal survival compared to baseline” value (retinal ganglion cells; DTT 500 μM in the presence of DTNB 1 mM, APV cultures P<0.01) was “significantly greater than baseline”.
